Measurements taken from US20050129687A1, “Use of inhibitors of PACAP receptor activity for treatment of overactive bladder and pelvic floor pain syndrome” (University of Vermont and State Agricultural College, priority 2003, published 2005).
Where no end group is shown, it is not given here.

Experiments:
[1] = tested on: rat with chronic spinal cord injury (SCI); experiment: Conscious cystometry in rats with chronic spinal cord injury (SCI); assay type: in vivo
Method: A complete spinal cord transaction was performed in adult, female rats anesthetized with isoflurane (2-3%). Animals received antibiotic and analgesic treatment following surgery. Animals were evaluated using conscious cystometry six-weeks following surgery when each animal had recovered automatic micturition. The University of Vermont IACUC approved all experimental procedures (protocol #02-108, 03-030, 03-148D) involving animal use. Animal care was under the supervision of the University of Vermont's Office of Animal Care in accordance with the Association for Assessment and Accreditation of Laboratory Animal Care and National Institutes of Health guidelines. All efforts were made to minimize animal stress/distress and suffering and to use the minimum number of animals. Currently, no alternatives exist to the use of whole, live animals in the present study.
(§1) Rats were anesthetized with isoflurane anesthesia (2-3%) and the atlanto-occiptal membrane was exposed by aseptic surgical technique. Polyethylene tubing (PE-10, Clay Adams, Parsippany, N.J.) was inserted under the membrane and passed to the lumbosacral spinal cord (L6-S1). Correct catheter placement was confirmed at time of euthanasia. The intrathecal catheter was secured in place with a small drop of dental cement and the incision was closed in two layers. The intravesical catheter was then inserted.
(§2) A lower midline abdominal incision was performed under general anesthesia (ketamine 60 mg/kg, xylazine 10 mg/kg, i.p.), and polyethylene tubing (PE-50) with the end flared by heat was inserted into the dome of the bladder and secured in place with a 6-0 nylon purse string suture. The distal end of the tubing was sealed, tunneled subcutaneously and externalized at the back of the neck, out of the animal's reach. Abdominal and neck incisions were closed with 4-0 nylon sutures. Animals were maintained for 72 hours after survival surgery to ensure complete recovery.
(§3) Control rats and rats treated with CYP (acute; 4 hr or intermediate; 48 hr) or SCI rats and also treated with a specific PACAP antagonist, PACAP6-38 or vehicle (0.9% saline), were evaluated with cystometry. For conscious cystometry, a rat was placed unrestrained in a cage. Prior to the start of the recording, the bladder was emptied and the catheter was connected via a T-tube to a pressure transducer (Grass® Model PT300, West Warwick, R.I.) and microinjection pump (Harvard Apparatus 22, South Natick, Mass.). We infused a 0.9% saline solution at room temperature into the bladder at a rate of 10 ml/hour. Intravesical pressure was recorded continuously using a Neurodata Acquisition System (Grass® Model 15, Astro-Med, Inc, West Warwick, R.I.). At least four reproducible micturition cycles were recorded after the initial stabilization period of 25-30 minutes. The following cystometric parameters were recorded in each animal: filling pressure (pressure at the beginning of the bladder filling), threshold pressure (bladder pressure immediately prior to micturition), micturition pressure (the maximal bladder pressure during micturition), micturition interval (time between micturition events), void volume and presence or absence of non-voiding bladder contractions (NVC). For the present study, NVCs were defined as increases in bladder pressure of at least 7 cm H2O without release of urine.
All values are means±S.E.M. Comparisons of urodynamic parameters between control and experimental treatments were made using the […]. When F ratios exceeded the critical value (P≦0.05), the Dunnett's post-hoc test was used to compare the control mean with each experimental mean.

[2] = tested on: rat with chronic CYP-induced cystitis; experiment: Conscious cystometry in rats with chronic CYP-induced cystitis; assay type: in vivo
Method: (§4) Chemical cystitis was induced in adult female Wistar rats by cyclophosphamide (CYP), which is metabolized to acrolein, an irritant eliminated in the urine. CYP (Sigma ImmunoChemicals, St. Louis, Mo.) was administered in one of the following ways: (1) 4 hr (150 mg/kg; i.p.) prior to euthanasia of the animals to elicit acute inflammation (n=6); (2) 48 hr (150 mg/kg; i.p.) prior to euthanasia to examine an intermediate inflammation (n=6) or (3) administered every third day for 10 days to elicit chronic inflammation (n=8; 75 mg/kg; i.p). All injections of CYP were performed under isoflurane (2%) anesthesia.
as §1, §2, §3
The effects of a specific PAC1 receptor antagonist, PACAP6-38 (i.t. or intravesical) (Peninsula Pharmaceuticals) or vehicle (0.9% saline, i.t. or intravesical; artificial cerebrospinal fluid, aCSF, i.t.) on lower urinary tract function in rats treated with CYP (4 hr, 48 hr or chronic cystitis) were evaluated. Separate groups of rats were used to evaluate the effects of PACAP6-38 given either through the i.t. catheter or the intravesical catheter. After recording at least three reproducible micturition cycles, PACAP6-38 or saline was administered through the catheters (i.t. or intravesical) and the effects evaluated.
All values are means±S.E.M. Comparisons of urodynamic parameters between control and experimental treatments were made using the Fischer exact test. […]

[3] = tested on: rat with acute (4 hr) CYP-induced cystitis; experiment: Conscious cystometry in rat with acute (4 hr) CYP-induced cystitis, intravesical delivery; assay type: in vivo; details: 200 nmol intravesically
Method: as §4, §2
Control rats and rats treated with CYP (acute; 4 hr or intermediate; 48 hr) or SCI rats and also treated with a specific PACAP antagonist, PACAP6-38 or vehicle (0.9% saline), were evaluated with cystometry. […] Intravesical pressure was recorded continuously using a Neurodata Acquisition System (Grass® Model 15, Astro-Med, Inc, West Warwick, R.I.). At least four reproducible micturition cycles were recorded after the initial stabilization period of 25-30 minutes. The following cystometric parameters were recorded in each animal: filling pressure (pressure at the beginning of the bladder filling), threshold pressure (bladder pressure immediately prior to micturition), micturition pressure (the maximal bladder pressure during micturition), micturition interval (time between micturition events), void volume and presence or absence of non-voiding bladder contractions (NVC). […]

tracheal muscles in cats = details: cited from earlier work
[4] = 1 nmol intrathecally, rat with chronic SCI
[5] = 1 nmol, SCI rats compared to SCI rats treated with vehicle (aCSF) (FIG. 7)
[6] = 1 nmol intrathecally, rat with chronic CYP-induced cystitis (FIG. 1)
[7] = acute (4 hr) CYP-induced cystitis (FIG. 4)

Phe-Thr-Asp-Ser-Tyr-Ser-Arg-Tyr-Arg-Lys-Gln-Met-Ala-Val-Lys-Lys-Tyr-Leu-Ala-Ala-Val-Leu-Gly-Lys-Arg-Tyr-Lys-Gln-Arg-Val-Lys-Asn-Lys (FTDSYSRYRKQMAVKKYLAAVLGKRYKQRVKNK) [PACAP6-38]
Non-voiding bladder contractions [1, 4]: not eliminated by treatment but reduced in pressure | persistence of drug effects after administration [1, 4]: at least 5 hours | micturition pressures ([1]; 1 nmol intrathecally, rat with chronic SCI (FIGS. 5 and 6)): reduced | Intermicturition pressure [1, 5]: reduced | micturition pressure [1, 5]: reduced | threshold pressure [1, 5]: reduced | persistence of drug effects after administration ([2]; 1 nmol intrathecally, rat with chronic CYP-induced cystitis): at least 5 hours | appearance of non-voiding bladder contractions [2, 6]: reduced | intercontraction interval [2, 6]: increased | intercontraction interval ([2]; rats treated chronically with CYP, 1 or 10 nmol (FIG. 3)): significantly lengthened | Non-voiding bladder contractions per cycle (NVC/cycle) ([2]; rats treated chronically with CYP, compared to untreated rats with CYP-induced cystitis (FIG. 2)): significantly reduced | persistence of drug effects after administration ([3]; acute (4 hr) CYP-induced cystitis): at least 2 hours | appearance of non-voiding bladder contractions [3, 7]: reduced | intercontraction interval [3, 7]: increased | inhibitory-NANC (non-adrenergic, non-cholinergic) relaxation (tracheal muscles in cats): partially but significantly inhibited

Pituitary adenylate cyclase-activating polypeptide (HSDGIFTDSYSRYRKQMAVKKYLAAVLGKRYKQRVKNK; ends and bridges not checked) [PACAP, polypeptide hormone that stimulates adenylate cyclase in pituitary cells; used as agonist]
effect of intrathecal agonist on the PACAP6-38-induced reduction of pressures ([1]; SCI rats, intrathecal, after PACAP6-38 (FIG. 7)): blocked this effect | effect of agonist on the PACAP6-38-induced change in intercontraction interval ([2]; rats treated chronically with CYP, after PACAP6-38 treatment): reversed
